In publication PMC11470957, “Principles of paralog-specific targeted protein degradation engaging the C-degron E3 KLHDC2” (Nature Communications, 2024):
“And” between values parts separate entries of the source, which are not always exact repeats. Identical values can stand only once. Like-named read-outs stand apart in the source and are kept apart here. Each block holds one compound with its values, some of them ahead of it.

How the values were obtained:
[1] = test system: SKBR3, AU565, RD, SKES1, A673 cells; experiment: Cell Titer-Glo Luminescent Cell Viability assay; details: read-out: IC50, cell viability; five cell lines (SKBR3, AU565, RD, SKES1, A673), after 24 hours
KLHDC2^SBD [2] = target: T1, KLHDC2^SBD (Homo sapiens, UniProt Q9Y2U9); experiment: Thermal shift assay (Sypro Orange) probing stabilization of KLHDC2^SBD; type: binding; parameters: KLHDC2^SBD (15-361) and its Avi-tagged counterpart were expressed in E. coli Rosetta2 cells; 6XHis-MBP (N, cleaved yes); made in house; host or cells: E. coli Rosetta2
T1 sequence (Q9Y2U9 15-361): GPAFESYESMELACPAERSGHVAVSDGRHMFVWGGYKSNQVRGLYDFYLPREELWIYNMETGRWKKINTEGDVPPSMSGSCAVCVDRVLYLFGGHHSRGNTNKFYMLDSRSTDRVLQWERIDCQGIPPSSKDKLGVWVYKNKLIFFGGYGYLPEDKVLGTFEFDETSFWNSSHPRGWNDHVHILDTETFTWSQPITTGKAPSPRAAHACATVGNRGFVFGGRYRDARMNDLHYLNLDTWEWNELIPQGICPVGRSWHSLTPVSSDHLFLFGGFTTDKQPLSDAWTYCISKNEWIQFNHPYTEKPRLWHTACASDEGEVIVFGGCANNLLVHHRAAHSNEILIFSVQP
Protocol: In an attempt to identify non-peptide ligands that target KLHDC2’s substrate binding domain (SBD), we developed a thermal shift assay probing for stabilization of KLHDC2^SBD upon ligand addition. […] We utilized the thermal shift assay to screen ~ 9,000 molecules from a diverse collection of lead-like molecules (Figs. 1b, S1a, Supplementary Table 1).
Experimental compounds (200 nl each) were dispensed into a 384-well PCR plate using the Labcyte ECHO 655 T. The assay solution, comprising 0.5 μM KLHDC2, 25 mM HEPES, 200 mM NaCl, and 5% Sypro Orange at pH 7.5, was added to achieve a final volume of 20 μl. Negative control wells contained only DMSO, while positive control wells contained a di-Gly substrate peptide derived from SELK. Fluorescence measurements of Sypro Orange in each sample were taken using a Quantstudio 5 or Quantstudio 6, with temperatures ranging from 23 to 75 °C at a rate of 0.05 °C/s. Data analysis involved calculating thermal stability using the Boltzmann and first derivative minima equations in Thermo Scientific Protein Thermal Shift software v1.4. The resulting data were uploaded to CDD Vault for further analysis.
The 8892-compound lead-like one library was screened for its ability to stabilize KLHDC2 using a sypro orange-based thermal stability single-point assay.
Supplementary Ta b l e 1. Small molecule screening data
Category Parameter Description
Assay Ty p e o f assay Thermal Stability Screen
Primary measurement RFU of Sypro Orange
Key reagents Sypro Orange
Assay protocol Experimental compounds (200nl each) were dispensed into […]
a 384-well PCR plate using the Labcyte ECHO 655T. The […]
assay solution, comprising 0.5µM KLHDC2, 25mM HEPES,
200mM NaCl, and 5% Sypro Orange at pH 7.5, was added […]
to achieve a final volume of 20μl. Negative control wells […]
contained only DMSO, while positive control wells […]
contained peptide sub2. Fluorescence measurements of
Sypro Orange in each sample were taken using a
Quantstudio 5 or Quantstudio 6, with temperatures ranging […]
from 23 to 75°C at a rate of 0.05°C/second. Data analysis […]
involved calculating thermal stability using the Boltzmann […]
and first derivative minima equations in Thermo Scientific
Protein Thermal Shift software v1.4. The resulting data […]
were uploaded to CDD Vault for further analysis.
Library Library size 10041
Library composition The library was curated from compounds cherry picked […]
from St. Jude’s collection, representative of 80% of the […]
entire collection based on scaffold diversity (2D Molecular […]
fingerprinting based clustering) and structural properties: […]
lipophilicity (cLogP<3), size (MW 200-300 Da), and no […]
structural alerts (PAINS).
Source The compound collection was curated from multiple […]
vendors and stored on-site.
Screen Format The assay was completed in 26 384 well plates
Concentration(s) tested Compounds were tested at 100µM, and then a 16-point […]
serial dilution was performed on select compounds.
Plate controls DMSO as negative control and peptide sub2 as positive […]
Reagent/ compound dispensing system Multidrop Combi and Labcyte ECHO 655T […]
Detection instrument and software Quant Studio 5 and Quant Studio 6 and Thermo Scientific […]
Protein Thermal Shift software v1.4
Correction factors No correction factors were applied.

KLHDC2^SBD [3] = target: T1, KLHDC2^SBD; experiment: TR-FRET assay, competition with di-Gly degron peptide binding to KLHDC2^SBD; parameters: KLHDC2^SBD (15-361) and its Avi-tagged counterpart were expressed in E. coli Rosetta2 cells; 6XHis-MBP (N, cleaved yes); made in house; host or cells: E. coli Rosetta2
Protocol: TR-FRET assays were carried out in black 384-well microtiter plates at a final volume of 20 μL per well. An assay cocktail was prepared as a mixture of 50 nM Biotin-KLHDC2 SBD, 20 nM AlexaFluor488-RIC8B peptide, 2.5 nM Tb-Streptavidin (ThermoFisher) in assay buffer (25 mM HEPES, 100 mM NaCl, 0.1% Triton X-100, 0.5 mM DTT, pH 7.5). The assay cocktail was incubated for thirty-minutes at room temperature and 20 μl distributed to assay plates. Molecules were distributed to the plates at the indicated concentration and the assay mixture was incubated for 1 h at room temperature prior to measuring the TR-FRET signal with a PHERAstar FS plate reader (BMG Labtech) equipped with modules for excitation at 337 nm and emissions at 490 and 520 nm. The integration start was set to 100 µs and the integration time to 200 µs. The number of flashes was fixed at 100. The ratio of 520/490 was used as TR-FRET signal in calculations. Assay endpoints were normalized to 100% (buffer only) and used for curve fitting in Prism.

KLHDC2^SBD [4] = target: T1, KLHDC2^SBD; experiment: Surface plasmon resonance binding to KLHDC2; parameters: KLHDC2^SBD (15-361) and its Avi-tagged counterpart were expressed in E. coli Rosetta2 cells; 6XHis-MBP (N, cleaved yes); made in house; host or cells: E. coli Rosetta2
Protocol: Surface plasmon resonance (SPR) was utilized to determine kinetic parameters and binding affinity of KLHDC2 substrates using a PioneerFE (Sartorius). Experiments were carried out in 20 mM Tris, 200 mM NaCl, 1 mM TCEP, 0.01% Brij35, and 1% DMSO at pH 7.4 as a running buffer with a 100 µL/min flow rate at 20 °C.
The 10xHis-KLHDC2 was immobilized onto a Ni-NTA-coated biosensor chip (HisCap). The chip surface was conditioned using 10 mM HCl, 50 mM NaOH, and 0.1% SDS (50 µL at 100 µL/min) twice, followed by a 100 mM Tris buffer wash (100 µL at 100 µL/min). The surface was then activated using an injection of 0.5 M EDTA (125 µL at 25 µL/min) followed by an injection of 5 mM NiCl2 (125 µL at 25 µL/min). […] Channel 2 was treated identically to channel 3 except for protein loading to be used as a reference channel. […] 100% of the loop was injected with a 300 s dissociation time. All samples were run in triplicate. Data was analyzed using Qdat software and fit to a simple 1-site model.
The SPR experiments were performed to determine the binding affinities (KD) of KLHDC2-SJ46411 and KLHDC2-SJ46418 complexes. All the experiments were performed using a Biacore 1S+ instrument. […] The running buffer consisted of 20 mM Tris pH 7.5, 200 mM NaCl, 1 mM TCEP, 0.01% Brij35, and 4% DMSO. […] In brief, before the immobilization, the sensor chip surface was conditioned by injecting a mixture of (3:1 v/v) 8 M guanidine hydrochloride and 1 M NaOH at a flow rate of 5 μL/min for 2 min for two times. Then, running buffer was injected at a 30 μl/min flow rate for 1 min 3 times. Next, the Biotin CAPture reagent was injected at a flow rate of 2 μl/min for 5 min. Then, biotinylated KLHDC2 was only injected onto the active channel (channel 2).
Sample preparation was carried out precisely the same as SJ46411. All experiments were performed using a multi-cycle analysis method with a 30 μl/min flow rate, 120 S association, and 240 s dissociation time. All data were reference subtracted and corrected for DMSO mismatch. The sensorgrams were analyzed using Biacore insight evaluation software, and KD was determined using the 1:1 steady-state affinity fitting. Finally, all the analyzed data was replotted using GraphPad Prizm 10 software.

KLHDC2^SBD [5] = target: T1, KLHDC2^SBD; experiment: ITC, binary binding of small molecule to KLHDC2^SBD
[6] = test system: BD2 domain from BRD2, BRD3, or BRD4 / neddylated CRL2^KLHDC2; experiment: Pulse-chase PROTAC-dependent ubiquitylation of BRD BD2 domains by neddylated CRL2^KLHDC2; details: neddylated CRL2^KLHDC2 not subject to autoinhibition; Fig 3e
neddylated CRL2^KLHDC2 = neddylated CRL2^KLHDC2 (Homo sapiens, UniProt Q9Y2U9, G405K/S406K); experiment: biochemical
KLHDC2^SBD / BRD3^BD2 = KLHDC2^SBD / BRD3^BD2 (Homo sapiens, UniProt Q15059+Q9Y2U9); experiment: ITC, ternary complex KLHDC2^SBD with PROTAC-BRD3^BD2
[7] = Solubility as observed in the ITC sample cell; details: at 40 μM in the ITC sample cell
[8] = target: neddylated CRL2^KLHDC2 / BRD3^BD2 (Homo sapiens, UniProt Q15059+Q9Y2U9, Q9Y2U9:G405K/Q9Y2U9:S406K); experiment: biochemical
[9] = inhibition of KLHDC2^SBD binding to a di-Gly degron peptide, read-out: TR-FRET IC50
[10] = cell: ligand, syringe: KLHDC2^SBD
[11] = cell: PROTAC-BRD3^BD2, syringe: KLHDC2^SBD

Chain of KLHDC2^SBD / BRD3^BD2 (Q15059 306-416, one chain of several): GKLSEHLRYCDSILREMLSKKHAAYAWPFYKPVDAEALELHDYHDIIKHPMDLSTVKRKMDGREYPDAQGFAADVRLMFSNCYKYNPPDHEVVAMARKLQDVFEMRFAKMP

ΔTm at 50 µM (KLHDC2^SBD [2]; read-out: ΔTm at 50 µM): 3.3 ± 0.2 °C
IC50 (KLHDC2^SBD [3]; [9]): 30.2 ± 3.4 µM
Kd (KLHDC2^SBD [4]; read-out: SPR Kd): 14.52 ± 0.01 µM
Structure (SMILES): COc1ccc(-c2nc(CC(=O)NCC(=O)O)cs2)c(Cl)c1 [SJ10272]

ΔTm at 50 µM (KLHDC2^SBD [2]; read-out: ΔTm at 50 µM): 2.5 ± 0.2 °C
IC50 (KLHDC2^SBD [3]; [9]): 40.6 ± 7.6 µM
Kd (KLHDC2^SBD [4]; read-out: SPR Kd): 25.47 ± 0.05 µM
Structure (SMILES): O=C(O)CNC(=O)Cc1csc(-c2ccc(O)cc2Cl)n1 [SJ10280]

ΔTm at 50 µM (KLHDC2^SBD [2]; 50 µM compound): 0.9 ± 0.2 °C
IC50 (KLHDC2^SBD [3]): 55.3 ± 25.2 µM
Kd (KLHDC2^SBD [4]; SPR Kd): > 2000 µM
Structure (SMILES): COCn1cc(-c2nc(CC(=O)NCC(=O)O)cs2)ccc1=O [SJ15396]

Kd (KLHDC2^SBD [5]; ITC Kd, cell: ligand, syringe: KLHDC2^SBD): 0.74 µM and 0.737 µM
Kd (KLHDC2^SBD [5]; Kd, Rep1/Rep2, ITC source data Fig4a, syringe KLHDC2, cell PROTAC alone): 0.69 µM and 0.789 µM
ITC -TΔS (KLHDC2^SBD [5]; [10]): -5.26 +/- 0.22 kcal/mol-1
ITC stoichiometry of binding N (KLHDC2^SBD [5]; [10]): 0.4 and ~ 0.5
ITC ΔG (KLHDC2^SBD [5]; [10]): -8.61 +/- 0.04 kcal/mol-1
ITC ΔH (KLHDC2^SBD [5]; [10]): -3.35 +/- 0.11 kcal/mol-1
IC50 (neddylated CRL2^KLHDC2): 15.3 µM
cooperativity α (KLHDC2^SBD / BRD3^BD2; BRD3^BD2, KLHDC2^SBD): 2.9
ITC -TΔS (ternary) (KLHDC2^SBD / BRD3^BD2; [11]): -5.26 +/- 0.18 kcal/mol-1
ITC N (ternary) (KLHDC2^SBD / BRD3^BD2; [11]): 0.4 and ~ 0.5
ITC ΔG (ternary) (KLHDC2^SBD / BRD3^BD2; [11]): -9.33 +/- 0.05 kcal/mol-1
solubility [7]: solubility issues
IC50 [8]: 2.2 µM
Structure (SMILES): Cc1sc2c(c1C)C(c1ccc(Cl)cc1)=N[C@@H](CC(=O)N1CCN(CCOc3ccc4ccc(-c5nc(CC(=O)NCC(=O)O)cs5)cc4c3)CC1)c1nnc(C)n1-2 [SJ46423]
polyubiquitylation of the BD2 domain from BRD2, BRD3, or BRD4 [6]: able to promote polyubiquitylation

More lines, now with the values behind:

Structure (SMILES): Cc1sc2c(c1C)C(c1ccc(Cl)cc1)=N[C@@H](CC(=O)OC(C)(C)C)c1nnc(C)n1-2 [JQ1, reference compound]
IC50 [1]: ~0.3 µM

Structure (SMILES): O=C(O)CNC(=O)Cc1csc(-c2cccc(Cl)c2)n1 [SJ10267]
ΔTm at 50 µM (KLHDC2^SBD [2]; read-out: ΔTm at 50 µM): 2.3 ± 0.07 °C
IC50 (KLHDC2^SBD [3]; [9]): 46.7 ± 13.5 µM
Kd (KLHDC2^SBD [4]; read-out: SPR Kd): 19 ± 0.06 µM

Structure (SMILES): COCOc1ccc(-c2nc(CC(=O)NCC(=O)O)cs2)cc1F [SJ45737]
ΔTm at 50 µM (KLHDC2^SBD [2]; read-out: ΔTm at 50 µM): 2.8 ± 0.3 °C
IC50 (KLHDC2^SBD [3]; [9]): 72.8 ± 8.6 µM
Kd (KLHDC2^SBD [4]; read-out: SPR Kd): 26.6 ± 0.1 µM
